Measurements published in patent US8785488B2 (Exelixis Patent Company LLC, priority 2009, dated 2014).

What was measured:
human TGR5 (h-TGR5) = target: T1, human TGR5 (h-TGR5) (Homo sapiens, UniProt Q8TDU6); assay: TGR5/CRE-Luciferiase Assay (HEK 293 hTGR5/CRE-Luc cells); assay type: cell-based; details: h-TGR5 CRE-Luc EC50, Table 1; read-out: CRE-Luc (EC50)
T1 construct: expressed in transfected cells
T1 sequence (Q8TDU6 1-330): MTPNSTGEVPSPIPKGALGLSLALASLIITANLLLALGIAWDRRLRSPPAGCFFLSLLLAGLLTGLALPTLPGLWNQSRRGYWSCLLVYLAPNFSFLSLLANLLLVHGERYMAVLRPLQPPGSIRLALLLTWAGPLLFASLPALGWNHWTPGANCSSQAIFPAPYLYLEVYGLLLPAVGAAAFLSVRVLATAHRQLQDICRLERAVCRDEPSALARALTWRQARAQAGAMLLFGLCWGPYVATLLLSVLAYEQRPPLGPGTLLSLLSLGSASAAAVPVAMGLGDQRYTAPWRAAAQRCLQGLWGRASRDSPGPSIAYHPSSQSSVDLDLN
How it was run: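 HEK293 cells stably carrying hTGR5 and a CRE-luciferase reporter were exposed to serially diluted compounds (diluted in DMEM with 5% DMSO) for 6 h. Cells were then lysed in luciferase buffer, luminescence was read, and EC50 values were derived from dose-response curves.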

h-TGR5 = target: T2, h-TGR5 (Homo sapiens, UniProt Q8TDU6); assay: TGR5 cAMP Assay using Cisbio cAMP Dynamic2 htrf kit (hTGR5CRE-luc HEK 293 cells); assay type: cell-based; details: h-TGR5 cAMP EC50, Table 1; read-out: cAMP (EC50)
T2 construct: expressed in transfected cells
T2 sequence (Q8TDU6 1-330): T1 sequence (Q8TDU6 1-330)
How it was run: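 […], 4000 hTGR5CRE-luc HEK 293 cells per well, with 0.5 mM IBMX and d2-cAMP, were incubated 30 min at room temperature with compounds in 8-point half-log series, in quadruplicate.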

Row | Structure (SMILES) | EC50 (human TGR5 (h-TGR5)) | EC50 (h-TGR5)
1 | CC(C)(c1ccc(S(N)(=O)=O)c(Cl)c1)c1cnc(SCc2ccc(S(=O)(=O)NC(=O)NN3CCOCC3)cc2Cl)n1-c1ccc(F)c(Cl)c1 [4-({[5-{1-[4-(aminosulfonyl)-3-chlorophenyl]-1-methylethyl}-1-(3-chloro-4-fluorophenyl)-1H-imidazol-2-yl]thio}methyl)-3-chloro-N-[(morpholin-4-ylamino)carbonyl]benzenesulfonamide] | 100 to 1000 nM | 100 to 1000 nM
2 | CC(C)(c1ccc(S(N)(=O)=O)c(Cl)c1)c1cnc(SCc2ccc(S(=O)(=O)NC(=O)NN3CCCC3)cc2Cl)n1-c1ccc(F)cc1 [4-({[5-{1-[4-(aminosulfonyl)-3-chlorophenyl]-1-methylethyl}-1-(4-fluorophenyl)-1H-imidazol-2-yl]thio}methyl)-3-chloro-N-[(pyrrolidin-1-ylamino)carbonyl]benzenesulfonamide] | 100 to 1000 nM | 100 to 1000 nM
3 | CC(C)(c1ccc(S(N)(=O)=O)c(Cl)c1)c1cnc(SCc2c(F)cc(C(=O)O)cc2F)n1-c1ccc(F)cn1 [4-({[5-{1-[4-(aminosulfonyl)-3-chlorophenyl]-1-methylethyl}-1-(5-fluoropyridin-2-yl)-1H-imidazol-2-yl]thio}methyl)-3,5-difluorobenzoic acid] | 100 to 1000 nM | 100 to 1000 nM
4 | COc1cc(C(C)(C)c2cnc(S(=O)(=O)CC3CCN(S(C)(=O)=O)CC3)n2-c2ccc(F)cc2)ccc1Cl [4-({[5-{1-[4-chloro-3-(methyloxy)phenyl]-1-methylethyl}-1-(4-fluorophenyl)-1H-imidazol-2-yl]sulfonyl}methyl)-1-(methylsulfonyl)piperidine] | 100 to 1000 nM | 100 to 1000 nM
5 | COc1cc(C(C)(C)c2cnc(SCc3ccc(C(=O)O)c(F)c3)n2-c2ccc(F)cc2)ccc1Cl [4-({[5-{1-[4-chloro-3-(methyloxy)phenyl]-1-methylethyl}-1-(4-fluorophenyl)-1H-imidazol-2-yl]thio}methyl)-2-fluorobenzoic acid] | 100 to 1000 nM | < 100 nM
6 | COc1cc(C(C)(C)c2cnc(SCc3ccnc(N)c3)n2-c2ccc(F)cc2)ccc1Cl [4-({[5-{1-[4-chloro-3-(methyloxy)phenyl]-1-methylethyl}-1-(4-fluorophenyl)-1H-imidazol-2-yl]thio}methyl)pyridin-2-amine] | 100 to 1000 nM | 100 to 1000 nM
7 | COc1cc(C(C)(C)c2cnc(SCc3c(F)cc(S(=O)(=O)NC(=O)NN4CCOCC4)cc3F)n2-c2ccc(F)cn2)ccc1Cl [4-({[5-{1-[4-chloro-3-(methyloxy)phenyl]-1-methylethyl}-1-(5-fluoropyridin-2-yl)-1H-imidazol-2-yl]thio}methyl)-3,5-difluoro-N-[(morpholin-4-ylamino)carbonyl]benzenesulfonamide] | 100 to 1000 nM | 100 to 1000 nM
8 | CC(C)(c1ccc(Cl)c(Cl)c1)c1cnc(SCC2CCN(c3nnn[nH]3)CC2)n1-c1ccc(F)c(Cl)c1 [4-[({1-(3-chloro-4-fluorophenyl)-5-[1-(3,4-dichlorophenyl)-1-methylethyl]-1H-imidazol-2-yl}thio)methyl]-1-(1H-tetrazol-5-yl)piperidine] | < 100 nM | 100 to 1000 nM
9 | CC(C)(c1ccc(Cl)c(Cl)c1)c1cnc(SCC2CCN(S(C)(=O)=O)CC2)n1-c1ccc(F)c(Cl)c1 [4-[({1-(3-chloro-4-fluorophenyl)-5-[1-(3,4-dichlorophenyl)-1-methylethyl]-1H-imidazol-2-yl}thio)methyl]-1-(methylsulfonyl)piperidine] | < 100 nM | 100 to 1000 nM
10 | CC(C)(c1ccc(Cl)c(Cl)c1)c1c(Cl)nc(SCc2c(F)cc(C(=O)O)cc2F)n1-c1ccc(F)cc1 [4-[({4-chloro-5-[1-(3,4-dichlorophenyl)-1-methylethyl]-1-(4-fluorophenyl)-1H-imidazol-2-yl}thio)methyl]-3,5-difluorobenzoic acid] | 100 to 1000 nM | 100 to 1000 nM
11 | Cc1cc(-n2c(C(C)(C)c3ccc(Cl)c(Cl)c3)cnc2SCc2c(F)cc(C(=O)O)cc2F)ccc1F [4-[({5-[1-(3,4-dichlorophenyl)-1-methylethyl]-1-(4-fluoro-3-methylphenyl)-1H-imidazol-2-yl}thio)methyl]-3,5-difluorobenzoic acid] | < 100 nM | < 100 nM
12 | CC(C)(c1ccc(Cl)c(Cl)c1)c1cnc(COC2CCN(S(C)(=O)=O)CC2)n1-c1ccc(F)cc1 [4-[({5-[1-(3,4-dichlorophenyl)-1-methylethyl]-1-(4-fluorophenyl)-1H-imidazol-2-yl}methyl)oxy]-1-(methylsulfonyl)piperidine] | 1000 to 10000 nM | 100 to 1000 nM
13 | CC(C)(c1ccc(Cl)c(Cl)c1)c1cnc(SCC2CCN(c3nnn[nH]3)CC2)n1-c1ccc(F)cc1 [4-[({5-[1-(3,4-dichlorophenyl)-1-methylethyl]-1-(4-fluorophenyl)-1H-imidazol-2-yl}thio)methyl]-1-(1H-tetrazol-5-yl)piperidine] | < 100 nM | 100 to 1000 nM
14 | CC(C)(c1ccc(Cl)c(Cl)c1)c1cnc(SCC2CCN(S(C)(=O)=O)CC2)n1-c1ccc(F)cc1 [4-[({5-[1-(3,4-dichlorophenyl)-1-methylethyl]-1-(4-fluorophenyl)-1H-imidazol-2-yl}thio)methyl]-1-(methylsulfonyl)piperidine] | < 100 nM | 100 to 1000 nM
15 | CC(C)(c1ccc(Cl)c(Cl)c1)c1cnc(SCc2c(F)cc(C(=O)NO)cc2F)n1-c1ccc(F)cc1 [4-[({5-[1-(3,4-dichlorophenyl)-1-methylethyl]-1-(4-fluorophenyl)-1H-imidazol-2-yl}thio)methyl]-3,5-difluoro-N-hydroxybenzamide] | < 100 nM | < 100 nM

Now from value to compound:

Row | EC50 (human TGR5 (h-TGR5)) | EC50 (h-TGR5) | Structure (SMILES)
16 | < 100 nM | < 100 nM | CC(C)(c1ccc(S(N)(=O)=O)c(Cl)c1)c1cnc(SCc2c(F)cc(C(=O)O)cc2F)n1-c1ccc(F)cc1 [4-({[5-{1-[4-(aminosulfonyl)-3-chlorophenyl]-1-methylethyl}-1-(4-fluorophenyl)-1H-imidazol-2-yl]thio}methyl)-3,5-difluorobenzoic acid]
17 | < 100 nM | < 100 nM | CC(C)(c1ccc(S(N)(=O)=O)c(Cl)c1)c1cnc(SCc2c(F)cc(C(=O)O)cc2Cl)n1-c1ccc(F)cc1 [4-({[5-{1-[4-(aminosulfonyl)-3-chlorophenyl]-1-methylethyl}-1-(4-fluorophenyl)-1H-imidazol-2-yl]thio}methyl)-3-chloro-5-fluorobenzoic acid]
18 | < 100 nM | 100 to 1000 nM | COc1cc(C(C)(C)c2cnc(SCC3CCN(c4nnn[nH]4)CC3)n2-c2ccc(F)cc2)ccc1Cl [4-({[5-{1-[4-chloro-3-(methyloxy)phenyl]-1-methylethyl}-1-(4-fluorophenyl)-1H-imidazol-2-yl]thio}methyl)-1-(1H-tetrazol-5-yl)piperidine]
19 | < 100 nM | < 100 nM | COc1cc(C(C)(C)c2cnc(SCC3CCN(S(C)(=O)=O)CC3)n2-c2ccc(F)cc2)ccc1Cl [4-({[5-{1-[4-chloro-3-(methyloxy)phenyl]-1-methylethyl}-1-(4-fluorophenyl)-1H-imidazol-2-yl]thio}methyl)-1-(methylsulfonyl)piperidine]
20 | < 100 nM | < 100 nM | COc1cc(C(C)(C)c2cnc(SCc3c(F)cc(S(=O)(=O)NC(=O)NN4CCOCC4)cc3F)n2-c2ccc(F)cc2)ccc1Cl [4-({[5-{1-[4-chloro-3-(methyloxy)phenyl]-1-methylethyl}-1-(4-fluorophenyl)-1H-imidazol-2-yl]thio}methyl)-3,5-difluoro-N-[(morpholin-4-ylamino)carbonyl]benzenesulfonamide]
21 | < 100 nM | < 100 nM | COc1cc(C(C)(C)c2cnc(SCc3c(F)cc(C(=O)NO)cc3F)n2-c2ccc(F)cc2)ccc1Cl [4-({[5-{1-[4-chloro-3-(methyloxy)phenyl]-1-methylethyl}-1-(4-fluorophenyl)-1H-imidazol-2-yl]thio}methyl)-3,5-difluoro-N-hydroxybenzamide]
22 | < 100 nM | < 100 nM | COc1cc(C(C)(C)c2cnc(SCc3c(F)cc(S(N)(=O)=O)cc3F)n2-c2ccc(F)cc2)ccc1Cl [4-({[5-{1-[4-chloro-3-(methyloxy)phenyl]-1-methylethyl}-1-(4-fluorophenyl)-1H-imidazol-2-yl]thio}methyl)-3,5-difluorobenzenesulfonamide]
23 | < 100 nM | 100 to 1000 nM | COc1cc(C(C)(C)c2cnc(SCc3ccc(S(=O)(=O)NC(=O)NN4CCCC4)cc3F)n2-c2ccc(F)cc2)ccc1Cl [4-({[5-{1-[4-chloro-3-(methyloxy)phenyl]-1-methylethyl}-1-(4-fluorophenyl)-1H-imidazol-2-yl]thio}methyl)-3-fluoro-N-[(pyrrolidin-1-ylamino)carbonyl]benzenesulfonamide]
24 | < 100 nM | < 100 nM | COc1cc(C(C)(C)c2cnc(SCc3ccc(C(=O)O)cc3F)n2-c2ccc(F)cc2)ccc1Cl [4-({[5-{1-[4-chloro-3-(methyloxy)phenyl]-1-methylethyl}-1-(4-fluorophenyl)-1H-imidazol-2-yl]thio}methyl)-3-fluorobenzoic acid]
25 | < 100 nM | < 100 nM | COc1cc(C(C)(C)c2cnc(SCc3c(F)cc(C(=O)O)cc3F)n2-c2ccc(F)cc2)ccc1Cl [4-({[5-{l-[4-chloro-3-(methyloxy)phenyl]-1-methylethyl}-1-(4-fluorophenyl)-1H-imidazol-2-yl]thio}methyl)-3,5-difluorobenzoic acid]
